Numbered stars: 1 amine (or outer) side, 2 acyl side, 3 side chain; on linkers, the order of the positions; unused ones are H or OH. Square brackets hold non-standard residues; d marks the D form. Side chains are listed from the residue outwards. Peptide text beside a SMILES is read from it. * marks the point of attachment. C20 diacid = O=C(O)CCCCCCCCCCCCCCCCCCC(=O)*; αMePhe(2-F) = C[C@](N)(Cc1ccccc1F)C(=O)O; γGlu = O=C(O)[C@H](CCC(=O)[*:2])N[*:1]; αMeL = CC(C)C[C@](C)(N)C(=O)O; Dap = NC[C@H](N)C(=O)O; AEEA = NCCOCCOCC(=O)O; Aib = CC(C)(N)C(=O)O
Legend:
[1] = biological target: human GLP-1 receptor (GLP-1R) (Homo sapiens, UniProt P43220); test: cAMP pharmacological functional assay in presence of casein, hGLP-1R; assay type: cell-based; conditions: HEK293 cells expressing hGLP-1R, 0.1% Casein, geometric mean; read-out: hGLP1R cAMP Rel EC50 nM (SEM, n)
Sequence of human GLP-1 receptor (GLP-1R) (P43220 24-463): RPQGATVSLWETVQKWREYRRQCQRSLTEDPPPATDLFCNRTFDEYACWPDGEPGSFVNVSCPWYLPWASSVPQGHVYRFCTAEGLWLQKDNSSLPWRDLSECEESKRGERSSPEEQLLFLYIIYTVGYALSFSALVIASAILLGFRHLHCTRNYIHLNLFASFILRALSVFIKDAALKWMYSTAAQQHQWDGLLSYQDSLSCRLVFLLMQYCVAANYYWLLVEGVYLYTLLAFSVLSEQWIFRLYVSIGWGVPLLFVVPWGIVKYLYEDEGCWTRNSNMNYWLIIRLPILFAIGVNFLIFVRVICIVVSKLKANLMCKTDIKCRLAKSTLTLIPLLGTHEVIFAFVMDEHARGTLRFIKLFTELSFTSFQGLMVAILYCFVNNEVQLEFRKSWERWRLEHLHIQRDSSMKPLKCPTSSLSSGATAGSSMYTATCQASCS

human GIP receptor = biological target: T1, human GIP receptor (Homo sapiens, UniProt P48546); test: [125I]-GIP binding (SPA), human GIP receptor; conditions: read-out: hGIPR Ki, nM (SEM, n)
T1 construct: expressed in transfected cells; crude membranes
T1 sequence (P48546 22-466): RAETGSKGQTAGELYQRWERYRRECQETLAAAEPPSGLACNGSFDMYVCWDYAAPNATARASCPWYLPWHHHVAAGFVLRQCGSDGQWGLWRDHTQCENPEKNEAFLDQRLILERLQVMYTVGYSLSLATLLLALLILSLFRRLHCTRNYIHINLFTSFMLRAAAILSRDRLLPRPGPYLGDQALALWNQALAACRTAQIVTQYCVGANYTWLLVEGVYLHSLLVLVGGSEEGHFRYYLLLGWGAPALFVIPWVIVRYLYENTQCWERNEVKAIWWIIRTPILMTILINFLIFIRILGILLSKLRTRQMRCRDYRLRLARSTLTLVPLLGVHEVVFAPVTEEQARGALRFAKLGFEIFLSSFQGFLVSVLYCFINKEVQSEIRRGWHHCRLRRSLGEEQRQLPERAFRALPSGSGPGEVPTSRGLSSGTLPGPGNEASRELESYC

human Gcg receptor = biological target: T2, human Gcg receptor (Homo sapiens, UniProt P47871); test: [125I]-Glucagon binding (SPA), human Gcg receptor; conditions: read-out: hGLcgR Ki, nM (SEM, n)
T2 construct: expressed in transfected cells; crude membranes
T2 sequence (P47871 26-477): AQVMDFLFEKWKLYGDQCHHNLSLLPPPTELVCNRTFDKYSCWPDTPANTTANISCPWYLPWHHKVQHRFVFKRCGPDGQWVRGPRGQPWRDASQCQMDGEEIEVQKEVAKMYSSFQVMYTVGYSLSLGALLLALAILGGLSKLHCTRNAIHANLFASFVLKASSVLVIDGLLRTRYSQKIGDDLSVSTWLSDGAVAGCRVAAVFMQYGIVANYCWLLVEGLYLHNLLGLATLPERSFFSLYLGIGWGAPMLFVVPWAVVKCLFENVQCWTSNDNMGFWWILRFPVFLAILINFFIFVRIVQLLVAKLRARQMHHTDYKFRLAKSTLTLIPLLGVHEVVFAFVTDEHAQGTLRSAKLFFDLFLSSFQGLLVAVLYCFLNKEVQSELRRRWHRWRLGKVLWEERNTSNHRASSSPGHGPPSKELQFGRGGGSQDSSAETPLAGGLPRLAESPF
Method in brief: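 Cell pellets were lysed in hypotonic Tris buffer, pH 7.5, homogenized, and spun at low then high speed to give crude membranes. Ki was derived from the fitted IC50.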

[2] = biological target: T3, gastric inhibitory peptide receptor (GIPR) (Homo sapiens, UniProt P48546); test: cAMP pharmacological functional assay in presence of casein, hGIPR; assay type: cell-based; conditions: HEK293 cells expressing hGIPR, 0.1% Casein, geometric mean; read-out: hGIPR cAMP Rel EC50 nM (SEM, n)
T3 sequence (P48546 22-466): T1 sequence (P48546 22-466)

human GLP-1R = human GLP-1R (Homo sapiens, UniProt P43220); test: [125I]-GLP-1 binding (SPA), human GLP-1 receptor; parameters: expressed in transfected cells; crude membranes; conditions: read-out: hGLP1R Ki, (nM) (SEM, n)
Sequence of human GLP-1R (P43220 24-463): as the sequence (P43220 24-463) above
Method in brief: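 Membranes: hypotonic lysis (50 mM Tris HCl, pH 7.5, protease inhibitors), Potter-Elvehjem homogenization, high-speed pellet (35000×g 1 h or 25000×g 30 min, 4° C.). Buffer: 25 mM HEPES pH 7.4, 2.5 mM CaCl2, 1 mM MgCl2. Four-parameter IC50 fit; Ki as geometric mean ± SEM.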

| Structure (SMILES) | EC50 [1] [nM] | Ki (human GIP receptor) [nM] | Ki (human Gcg receptor) [nM] | EC50 [2] [nM] | Ki (human GLP-1R) [nM] |
| --- | --- | --- | --- | --- | --- |
| CC[C@H](C)[C@H](NC(=O)[C@H](CC(C)C)NC(=O)[C@H](Cc1ccc(O)cc1)NC(=O)[C@@H](CCC(=O)O)NC(=O)[C@@H](NC(=O)[C@H](Cc1ccccc1)NC(=O)[C@H](CCC(=O)O)NC(=O)C(C)(C)NC(=O)[C@H](CCC(N)=O)NC(=O)[C@H](C)NC(=O)[C@H](CCCCNC(=O)COCCOCCNC(=O)COCCOCCNC(=O)CC[C@H](NC(=O)CCCCCCCCCCCCCCCCCCC(=O)O)C(=O)O)NC(=O)[C@H](CCCCN)NC(=O)[C@H](CC(=O)O)NC(=O)[C@H](CC(C)C)NC(=O)[C@](C)(CC(C)C)NC(=O)[C@@H](NC(=O)[C@H](CO)NC(=O)[C@H](Cc1ccc(O)cc1)NC(=O)[C@H](CC(=O)O)NC(=O)[C@H](CO)NC(=O)[C@@H](NC(=O)[C@](C)(Cc1ccccc1F)NC(=O)[C@@H](NC(=O)CNC(=O)[C@H](CCC(=O)O)NC(=O)C(C)(C)NC(=O)[C@@H](N)Cc1ccc(O)cc1)[C@@H](C)O)[C@@H](C)O)[C@@H](C)CC)[C@@H](C)CC)C(=O)N[C@@H](CCC(=O)O)C(=O)NCC(=O)NCC(=O)N1CCC[C@H]1C(=O)N[C@@H](CO)C(=O)N[C@@H](CO)C(=O)NCC(=O)N[C@@H](C)C(=O)N1CCC[C@H]1C(=O)N1CCC[C@H]1C(=O)N1CCC[C@H]1C(=O)N[C@@H](CO)C(N)=O [Example 212] (H-Y[Aib]EGT[αMePhe(2-F)]TSDYSI[αMeL]LDKK([AEEA-AEEA-γGlu-C20 diacid])AQ[Aib]EFI[dE]YLIEGGPSSGAPPPS-NH2) | 0.0572 | 0.0978 | 205 | 0.0501 | 2.76 |
| CC[C@H](C)[C@H](NC(=O)[C@H](CCCCN)NC(=O)[C@H](CC(=O)O)NC(=O)[C@H](CC(C)C)NC(=O)[C@H](CC(C)C)NC(=O)[C@@H](NC(=O)[C@H](CO)NC(=O)[C@H](Cc1ccc(O)cc1)NC(=O)[C@H](CC(=O)O)NC(=O)[C@H](CO)NC(=O)[C@@H](NC(=O)[C@H](Cc1ccccc1)NC(=O)[C@@H](NC(=O)CNC(=O)[C@H](CCC(=O)O)NC(=O)C(C)(C)NC(=O)[C@@H](N)Cc1ccc(O)cc1)[C@@H](C)O)[C@@H](C)O)[C@@H](C)CC)C(=O)N[C@@H](C)C(=O)N[C@@H](CCC(N)=O)C(=O)NC(C)(C)C(=O)N[C@@H](C)C(=O)N[C@@H](Cc1ccccc1)C(=O)N[C@H](C(=O)N[C@@H](CCCCNC(=O)COCCOCCNC(=O)COCCOCCNC(=O)CC[C@H](NC(=O)CCCCCCCCCCCCCCCCCCC(=O)O)C(=O)O)C(=O)N[C@@H](Cc1ccc(O)cc1)C(=O)N[C@@H](CC(C)C)C(=O)N[C@H](C(=O)N[C@@H](CCC(=O)O)C(=O)NCC(=O)NCC(=O)N1CCC[C@H]1C(=O)N[C@@H](CO)C(=O)N[C@@H](CO)C(=O)NCC(=O)N[C@@H](C)C(=O)N1CCC[C@H]1C(=O)N1CCC[C@H]1C(=O)N1CCC[C@H]1C(=O)N[C@@H](CO)C(N)=O)[C@@H](C)CC)[C@@H](C)CC [Example 34] (H-Y[Aib]EGTFTSDYSILLDKIAQ[Aib]AFIK([AEEA-AEEA-γGlu-C20 diacid])YLIEGGPSSGAPPPS-NH2) | 1.56 | 0.0467 | 134 | 0.36 | 3.41 |
| CC[C@H](C)[C@H](NC(=O)[C@H](CC(C)C)NC(=O)[C@H](Cc1ccc(O)cc1)NC(=O)[C@H](CO)NC(=O)[C@@H](NC(=O)[C@H](Cc1ccccc1)NC(=O)[C@H](CCC(=O)O)NC(=O)C(C)(C)NC(=O)[C@H](CCC(N)=O)NC(=O)[C@H](C)NC(=O)[C@H](CCCCNC(=O)COCCOCCNC(=O)COCCOCCNC(=O)CC[C@H](NC(=O)CCCCCCCCCCCCCCCCCCC(=O)O)C(=O)O)NC(=O)[C@H](CCC(=O)O)NC(=O)[C@H](CC(=O)O)NC(=O)[C@H](CC(C)C)NC(=O)[C@](C)(CC(C)C)NC(=O)[C@@H](NC(=O)[C@H](CO)NC(=O)[C@H](Cc1ccc(O)cc1)NC(=O)[C@H](CC(=O)O)NC(=O)[C@H](CO)NC(=O)[C@@H](NC(=O)[C@](C)(Cc1ccccc1F)NC(=O)[C@@H](NC(=O)CNC(=O)[C@H](CCC(=O)O)NC(=O)C(C)(C)NC(=O)[C@@H](N)Cc1ccc(O)cc1)[C@@H](C)O)[C@@H](C)O)[C@@H](C)CC)[C@@H](C)CC)C(=O)N[C@@H](CCC(=O)O)C(=O)NCC(=O)NCC(=O)N1CCC[C@H]1C(=O)N[C@@H](CO)C(=O)N[C@@H](CO)C(=O)NCC(=O)N[C@@H](C)C(=O)N1CCC[C@H]1C(=O)N1CCC[C@H]1C(=O)N1CCC[C@H]1C(=O)N[C@@H](CO)C(N)=O [Example 150] (H-Y[Aib]EGT[αMePhe(2-F)]TSDYSI[αMeL]LDEK([AEEA-AEEA-γGlu-C20 diacid])AQ[Aib]EFISYLIEGGPSSGAPPPS-NH2) | 0.0575 | 0.0649 | 63.2 | 0.0511 | 30.5 |
| CC[C@H](C)[C@H](NC(=O)[C@H](CC(C)C)NC(=O)[C@H](Cc1ccc(O)cc1)NC(=O)[C@H](CCC(=O)O)NC(=O)[C@@H](NC(=O)[C@H](Cc1ccccc1)NC(=O)[C@H](C)NC(=O)C(C)(C)NC(=O)[C@H](CCC(N)=O)NC(=O)[C@H](C)NC(=O)[C@H](CCCCNC(=O)COCCOCCNC(=O)COCCOCCNC(=O)CC[C@H](NC(=O)CCCCCCCCCCCCCCCCCCC(=O)O)C(=O)O)NC(=O)[C@H](CCC(=O)O)NC(=O)[C@H](CC(=O)O)NC(=O)[C@H](CC(C)C)NC(=O)[C@](C)(CC(C)C)NC(=O)[C@@H](NC(=O)[C@H](CO)NC(=O)[C@H](Cc1ccc(O)cc1)NC(=O)[C@H](CC(=O)O)NC(=O)[C@H](CO)NC(=O)[C@@H](NC(=O)[C@H](Cc1ccccc1)NC(=O)[C@@H](NC(=O)CNC(=O)[C@H](CCC(=O)O)NC(=O)C(C)(C)NC(=O)[C@@H](N)Cc1ccc(O)cc1)[C@@H](C)O)[C@@H](C)O)[C@@H](C)CC)[C@@H](C)CC)C(=O)N[C@@H](CCC(=O)O)C(=O)NCC(=O)NCC(N)=O [Example 63] (H-Y[Aib]EGTFTSDYSI[αMeL]LDEK([AEEA-AEEA-γGlu-C20 diacid])AQ[Aib]AFIEYLIEGG-NH2) | 0.19 | 0.141 | 273 | 0.0925 | 7.79 |
| CC[C@H](C)[C@H](NC(=O)[C@H](CC(C)C)NC(=O)[C@H](Cc1ccc(O)cc1)NC(=O)[C@@H](CCC(=O)O)NC(=O)[C@@H](NC(=O)[C@H](Cc1ccccc1)NC(=O)[C@H](CCC(=O)O)NC(=O)C(C)(C)NC(=O)[C@H](CCC(N)=O)NC(=O)[C@H](C)NC(=O)[C@H](CCCCNC(=O)COCCOCCNC(=O)COCCOCCNC(=O)CC[C@H](NC(=O)CCCCCCCCCCCCCCCCCCC(=O)O)C(=O)O)NC(=O)[C@H](CN)NC(=O)[C@H](CC(=O)O)NC(=O)[C@H](CC(C)C)NC(=O)[C@](C)(CC(C)C)NC(=O)[C@@H](NC(=O)[C@H](CO)NC(=O)[C@H](Cc1ccc(O)cc1)NC(=O)[C@H](CC(=O)O)NC(=O)[C@H](CO)NC(=O)[C@@H](NC(=O)[C@](C)(Cc1ccccc1F)NC(=O)[C@@H](NC(=O)CNC(=O)[C@H](CCC(=O)O)NC(=O)C(C)(C)NC(=O)[C@@H](N)Cc1ccc(O)cc1)[C@@H](C)O)[C@@H](C)O)[C@@H](C)CC)[C@@H](C)CC)C(=O)N[C@@H](CCC(=O)O)C(=O)NCC(=O)NCC(=O)N1CCC[C@H]1C(=O)N[C@@H](CO)C(=O)N[C@@H](CO)C(=O)NCC(=O)N[C@@H](C)C(=O)N1CCC[C@H]1C(=O)N1CCC[C@H]1C(=O)N1CCC[C@H]1C(=O)N[C@@H](CO)C(N)=O [Example 218] (H-Y[Aib]EGT[αMePhe(2-F)]TSDYSI[αMeL]LD[Dap]K([AEEA-AEEA-γGlu-C20 diacid])AQ[Aib]EFI[dE]YLIEGGPSSGAPPPS-NH2) | 0.0423 | 0.0593 | 270 | 0.0413 | 2.54 |

— patent US12252524B2, “GIP/GLP1 co-agonist compounds” (Eli Lilly and Company, priority 2018, dated 2025)
